The values that follow are results of earlier work, collected in US20240366636A1, “ORAL CANNABINOID PHARMACEUTICAL COMPOSITIONS AND METHODS OF TREATING INFLAMMATORY GASTROINTESTINAL DISORDERS” (Curio IP, LLC, priority 2022, published 2024).

The conditions of data set [1]: humans.
In a further data set the target is cannabinoid CB2 receptor (Homo sapiens, UniProt P34972).
For data set [2], the system named is DNBS-induced intestinal inflammation. Conditions: murine.

Chain of cannabinoid CB2 receptor (P34972 whole entry): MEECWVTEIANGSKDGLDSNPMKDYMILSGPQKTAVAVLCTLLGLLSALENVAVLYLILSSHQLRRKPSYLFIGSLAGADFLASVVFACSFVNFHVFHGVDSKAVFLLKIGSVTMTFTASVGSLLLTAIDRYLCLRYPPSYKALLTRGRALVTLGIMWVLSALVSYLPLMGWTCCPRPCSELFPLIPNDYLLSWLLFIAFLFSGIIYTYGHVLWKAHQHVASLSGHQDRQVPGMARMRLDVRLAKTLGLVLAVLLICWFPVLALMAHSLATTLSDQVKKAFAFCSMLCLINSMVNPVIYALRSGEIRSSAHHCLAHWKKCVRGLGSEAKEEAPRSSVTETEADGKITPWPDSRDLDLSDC

`C=C(C)[C@@H]1CCC(C)=C[C@H]1c1c(O)cc(CCCCC)cc1O` [CBD, cannabidiol]: the oral bioavailability result in data set [1] is listed as “approximately 6%”. In addition, the “affinity for CB2 receptor” value on cannabinoid CB2 receptor is “low affinity”.
As usually defined, the half-life is the time needed for the level to fall by half in the phase considered. `CCCCCc1cc(O)c2c(c1)OC(C)(C)[C@@H]1CCC(C)=C[C@@H]21` [THC, (−)-(6aR,10aR)-6,6,9-trimethyl-3-pentyl-6a,7,8,10a-tetrahydro-6H-benzo[c]chromen-1-ol]: where the note is “following smoking of the equivalent of 10-15 mg over 5-7 minutes”, the peak plasma levels entry is recorded as “around 100 μg/L”. For the same molecule, the half-life (plasma, when cannabis is smoked) was 2 h. For the same molecule, where the note is “smoking route”, the Bioavailability is 2-56%.
In the case of Cannabigerol [CBG], in data set [2], the “DNBS-induced intestinal inflammation and permeability” value is given as “attenuated”. For the same molecule, in data set [2] (DNBS), the “Interleuken-1β (IL-1β) levels” value is “reduced” and the “myeloperoxidase (MPO) activity” value is “reduced”.
